Test results from US20260347338A1, “PYRIMIDINE/PYRIDINE DERIVATIVES OR SALTS THEREOF AND PHARMACEUTICAL COMPOSITIONS COMPRISING THE SAME” (YUHAN CORPORATION, priority 2023, published 2026).
Counter-ions that a name gives are not always drawn.

Molecular target: T1, human recombinant HPK1 (Homo sapiens, UniProt Q92918)
T1 construct: purchased BPS Bioscience
Test: Inhibitory activity against human recombinant HPK1 (TR-FRET)
Assay type: biochemical
Details: ULight-p70S6K peptide, ATP at Km, room temperature, 1 hour, 0.32 to 1000 nM compound
Procedure, shortened: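 Recombinant human HPK1 with ULight-p70S6K peptide and ATP at Km, 1 h at room temperature in HEPES pH 7.4 buffer with Mg2+, Mn2+, EGTA, DTT; compounds 0.32–1000 nM final. EDTA stop, Eu-anti-phosphopeptide TR-FRET read (665 nm); IC50 from % inhibition versus DMSO, binned A–D at 10, 50, 100 nM.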

T1 sequence (Q92918 whole entry): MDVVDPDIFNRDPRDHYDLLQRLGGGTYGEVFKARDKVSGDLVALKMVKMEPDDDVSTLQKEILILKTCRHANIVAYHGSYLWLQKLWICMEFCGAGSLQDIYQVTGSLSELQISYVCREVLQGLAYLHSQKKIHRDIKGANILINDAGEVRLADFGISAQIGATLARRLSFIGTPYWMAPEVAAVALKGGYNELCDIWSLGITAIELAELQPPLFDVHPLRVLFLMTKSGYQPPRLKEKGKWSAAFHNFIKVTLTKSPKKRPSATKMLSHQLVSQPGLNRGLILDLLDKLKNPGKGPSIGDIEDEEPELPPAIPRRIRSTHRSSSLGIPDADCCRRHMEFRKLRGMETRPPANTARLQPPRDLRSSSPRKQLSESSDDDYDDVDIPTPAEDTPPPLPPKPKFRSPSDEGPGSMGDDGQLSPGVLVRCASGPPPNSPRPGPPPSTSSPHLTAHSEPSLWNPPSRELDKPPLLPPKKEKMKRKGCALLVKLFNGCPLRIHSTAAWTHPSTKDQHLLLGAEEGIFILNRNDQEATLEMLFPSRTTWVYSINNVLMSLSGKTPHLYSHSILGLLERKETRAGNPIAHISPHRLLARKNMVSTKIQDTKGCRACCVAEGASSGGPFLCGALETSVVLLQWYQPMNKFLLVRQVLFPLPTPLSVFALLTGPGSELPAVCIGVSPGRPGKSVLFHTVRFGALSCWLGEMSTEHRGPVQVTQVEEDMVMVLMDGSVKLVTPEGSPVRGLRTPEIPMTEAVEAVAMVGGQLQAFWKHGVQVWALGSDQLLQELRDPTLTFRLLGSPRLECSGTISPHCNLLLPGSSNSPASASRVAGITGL

COc1cccc(F)c1-c1nccc(Nc2cc(N3CCC[C@H](N)C3)c(-c3cnn(C(F)(F)F)c3)cn2)n1 [Example 107, (S)-N-(4-(3-aminopiperidin-1-yl)-5-(1-(trifluoromethyl)-1H-pyrazol-4-yl)pyridin-2-yl)-2-(2-fluoro-6-methoxyphenyl)pyrimidin-4-amine hydrochloride]
IC50: ≤ 10 nM
